US20120076859A1, “Targeted Lung Delivery of Citrulline and/or Another Nitric Oxide Precursor and a Method for Treatment of Pulmonary Deficiency of Nitric Oxide in Cystic Fibrosis and Other Pulmonary Diseases” (ACTIVAERO GMBH, priority 2010, published 2012)

Key:
exhaled nitric oxide = conditions: inhaled L-arginine; healthy and asthmatic subjects; cited from earlier work
[1] = single oral dose; cystic fibrosis and healthy subjects; cited from earlier work
[2] = system: isolated lungs of chronically hypoxic newborn pigs; conditions: perfusion of isolated lungs; cited from earlier work
[3] = system: exhaled nitric oxide / pulmonary function; conditions: cystic fibrosis patients, cited from earlier work
[4] = inhalation of arginine solution; cystic fibrosis patients; cited from earlier work
[5] = Storage stability of ready to use formulation in LDPE vials; format: physicochemical; conditions: room temperature; LDPE vials covered with aluminum overwrap
Experimental: In alternative, the liquid form of the highly concentrated citrulline or another nitric oxide precursor may also be conveniently supplied as a ready to use formulation stored and supplied in 1 mL “Blow-fill-Seal” vial, made of plastic polyethylene material, such as low density polyethylene (LDPE). The selected material for such ready to use formulation prevents absorption of the active component onto the plastic walls of the vial, which is a common occurrence with other plastic materials. The 1 mL fill volume of the vial provides an exact amount of active component that is safe and efficacious for the patient convenience provided, of course, that the therapeutically effective amount of the active component can be supplied in 1 mL dilution. In the above described type of vials covered with an aluminum overwrap, citrulline or nitric oxide precursors for inhalation are stable for at least 9 months and 12 months, respectively, at room temperature. There is no loss of strength under these conditions. At accelerated conditions where the vials are exposed to a temperature of 40° C. and 75% relative humidity, all formulations for extended shelf-life will be shown to retain their full activity for at least 6 months and preferably or one year.

Structure (SMILES)	exhaled nitric oxide (exhaled nitric oxide)	time of maximum effect on exhaled nitric oxide (exhaled nitric oxide) [min]	plasma L-arginine concentration [1]	nitric oxide production [2]	plasma amino acid concentration of L-arginine ([3]; after single inhalation)	FEV1 ([3]; single inhalation)	exhaled nitric oxide concentrations ([3]; single inhalation)	adverse effects of inhalation therapy [4]	stability (shelf-life) [5]
N=C(N)NCCC[C@H](N)C(=O)O [L-arginine]	increased exhaled nitric oxide in a dose-dependent fashion	60	significant increase of plasma L-arginine concentration	increase of nitric oxide production	did not change significantly over time	sustained improvement of FEV1	significantly increasing exhaled nitric oxide concentrations	cough, airway inflammation and severe deterioration of the patients general conditions	–
NC(=O)NCCC[C@H](N)C(=O)O [citrulline, L-(+)-2-amino-5-ureidovaleric acid]	–	–	–	–	–	–	–	–	at least 9 months
